Measured values: patent US6908930B2, “4-substituted 7-AZA-indolin-2-ones and their use as protein kinase inhibitors” (Sugen, Inc., priority 1999, dated 2005)

Tests used:
[1] = molecular target: T1, EGFR (Homo sapiens, UniProt P00533); experiment: Assay for modulation of EGFR activity (ELISA); format: biochemical; details: read-out: bio EGFR IC50
T1 construct: A431 […] cell lysate is stored at −80° C; host or cells: A431 cell lysate
Procedure: Using the following reagents, supplies, and method, the ability of compounds of the invention to modulate the in vitro activity of EGFR can be readily determined in an ELISA.
A431 […] cell lysate is stored at −80° C.
ATP/MnCl2 phosphorylation mix is prepared by adding 300 μL of 1.0 mM ATP and […] of 1M MnCl2 to 9.2 mL of dH2O and mixing. Ten mL of phosphorylation mix is enough for about 6 assay plates. Note that the mixture should be made fresh and kept on ice immediately before use, and that although the preferred ATP is fresh from powder stock, any remaining stock solution of ATP may be frozen at −20° C. in small aliquots to be used at a later time.
Coat Corning 96 well ELISA plates with 0.5 μg per well with SUMO1 in a volume of 100 μL PBS overnight, at 4° C. Remove unbound SUMO1 from wells by inverting plate to remove liquid. Wash 1× with distilled H2O by filling wells. Pat the plate on a paper towel to remove excess liquid.
Add 150 μL of Blocking Buffer to each well. Incubate for 30 minutes at room temperature, with shaking. Wash plate 3× with deionized water, then once with TBST. Pat plate on a paper towel to remove excess liquid and bubbles.
Dilute lysate in PBS (7 μg lysate/[…]) and add 100 μL of diluted lysate to each well. Shake at room temperature for 60 minutes. Wash 1× with distilled H2O by filling wells. Pat the plate on a paper towel to remove excess liquid.
Add 120 μL TBST to ELISA plate containing captured EGFR.
Dilute drugs/extracts 1:10 (unless specified otherwise) in TBST in 96-well polypropylene plates. (i.e., 10 μL compound+90 μL TBST). Add 13.5 μL diluted drugs/extracts to ELISA plate. […] Incubate for 30 minutes while shaking at room temperature.
Approximately 150 μL final volume in well with 3 uM ATP/5 mM MnCl2 final concentration in well. Incubate 5 minutes while shaking. Note that this is a timed event. It is critical that ATP/MnCl2 phosphorylates the receptor for only 5 minutes. It is best to add the ATP/MnCl2 with an automated 96 place pipettor workstation, then 5 minutes later stop the reaction with EDTA using the same workstation. Alternatively, addition can be performed using a 12 channel pipettor 1 row at a time, leaving 20 seconds between each row so that the reaction may be stopped with EDTA exactly 5 minutes later (this depends on the number of plates being phosphorylated in one batch). Shake between each addition.
[…] This is done using either the same work station as above, or the same timing method employed with the 12 channel pipettor. After the EDTA has been added, shake for 1 minute. Wash 4× with deionized water, twice with TBST.
Add 100 μL per well of anti-phosphotyrosine (1:3000 dilution in TBST). Incubate 30-45 minutes at room temperature, with shaking. Wash 1× with distilled H2O by filling wells. Pat the plate on a paper towel to remove excess liquid.
Incubate 30 minutes at room temperature, with shaking. Wash 1× with distilled H2O by filling wells. Pat the plate on a paper towel to remove excess liquid.
Add 100 μL of ABTS/H2O2 solution to each well. Incubate 5 to 10 minutes while shaking. Remove any bubbles. If necessary stop reaction with the addition of 100 μL of 0.2M HCl per well.
Read assay on Dynatech MR7000 ELISA reader.

[2] = molecular target: T2, HER-2 (Homo sapiens, UniProt P04626); experiment: Assay for modulation of HER-2 activity in whole cells (ELISA); format: cell-based; details: EGFR/HER-2chimera/#T3-C7 cell lines, EGF stimulated; read-out: HER-2 kinase IC50
T2 construct: expressed in mouse 3T3 (clone C7) cells; P00533 (Epidermal growth factor receptor)
T2 sequence (P04626 720-987 limits assumed): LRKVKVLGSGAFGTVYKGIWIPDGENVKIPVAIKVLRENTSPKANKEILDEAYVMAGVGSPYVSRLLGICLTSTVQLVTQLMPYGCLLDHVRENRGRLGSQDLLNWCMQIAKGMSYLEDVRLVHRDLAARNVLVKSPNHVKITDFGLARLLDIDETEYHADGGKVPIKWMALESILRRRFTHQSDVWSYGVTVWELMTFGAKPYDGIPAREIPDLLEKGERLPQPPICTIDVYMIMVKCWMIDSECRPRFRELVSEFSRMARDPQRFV
Procedure: Using the following reagents, supplies, and method, the ability of compounds of the invention to affect the activity of HER-2 in whole cells in an ELISA format can be assigned.
EGFR/HER-2chimera/#T3-C7 cell lines are used for this assay. Choose dishes having 80-90% confluence for the experiment. Collect cells by trypsinization and centrifuge at 1000 rpm at room temperature for 5 minutes.
Resuspend cells in starve medium and count with trypan blue. Only viability above 90% is acceptable. Seed cells in starve medium at a density of 2,500 cells per well, 90 μL per well, in a 96 well microtiter plate. Incubate seeded cells in 5% CO2 at 37° C. overnight. Start the assay two days after seeding.
Samples are diluted directly into a polypropylene plate containing starve-DMEM (non-sterile is okay). This dilution will be 1:10 or greater, depending on the samples being screened. The same amount of DMSO is put into the control wells. […] are then transferred to the cell plate at a 1:10 dilution (10 μL of sample and media into 90 μL of starve media). The final DMSO concentration will be 1% or lower.
Ten samples are put into wells 2-11 of row A of the NUNC 96 well polypropylene plate. These wells contain straight starve-DMEM. For a 1:10 dilution, one would put 10 μL of drug into 90 μL of media. The rest of the wells (including the controls) will have a DMSO/media mixture. The percentage of DMSO in this mixture is determined by the first dilution factor, in this case 1:10. The DMSO concentration is therefore 10%. An equal amount of drug and media from row A is put into row B, containing DMSO and media. The same amount is then taken out and put into row C. This is repeated for all rows. These are 1:2 dilutions. All wells are then transferred to the cell plate at a 1:10 dilution (10 μL of sample and media into 90 μL of starve-DMEM. The final DMSO concentration will be 1% or lower. […]
After a 2 hour incubation with the drug, add prepared EGF ligand to cells at 50 μL per well, for a final concentration of 50 nM. Positive control wells (8) receive the same amount of EGF. […] Incubate at 37° C. for 10 minutes.
Remove drug, EGF, and DMEM by dumping in sink. Wash cells once with PBS.
Transfer HNTG* to cells, 100 μL per well. Place on ice for 5 minutes. Meanwhile, remove blocking buffer from ELISA plate and wash as described above. With a pipette tip securely fitted to a micropipettor, scrape cells from plate and homogenize cell material by repeatedly aspirating and dispensing the HNTG* lysis buffer. Transfer lysate to a coated, blocked, washed ELISA plate. Alternatively, one may use a Costar transfer cartridge to transfer lysate to the ELISA plate. Incubate, shaking, at room temperature for one hour.
Remove lysate by dumping in sink, then wash as described earlier. Transfer freshly diluted anti-phosphotyrosine (anti-Ptyr) antibody (1:3000 in TEST) to ELISA plate, 100 μL per well. Incubate, shaking, at room temperature, for 30 minutes.
Remove anti-Ptyr antibody by dumping in sink, then wash as described earlier. Transfer freshly diluted BIOSOURCE antibody to ELISA plate, (1:8000 in TEST), 100 μL per well. Incubate, shaking, at room temperature for 30 minutes.
Remove BIOSOURCE antibody by dumping in sink, then wash as described earlier. Transfer freshly prepared ABTS/H2O2 solution to ELISA plate, […]. Incubate 5-10 minutes while shaking. Remove any bubbles and if necessary, stop reaction with the addition of 100 μL of 0.2 M HCl per well.
Read assay on Dynatech MR7000 ELISA reader. Test Filter: […]; Reference Filter: […]. A preferred template for the placement of controls in this experiment is provided below: […]

T1 sequence (P00533 25-1210): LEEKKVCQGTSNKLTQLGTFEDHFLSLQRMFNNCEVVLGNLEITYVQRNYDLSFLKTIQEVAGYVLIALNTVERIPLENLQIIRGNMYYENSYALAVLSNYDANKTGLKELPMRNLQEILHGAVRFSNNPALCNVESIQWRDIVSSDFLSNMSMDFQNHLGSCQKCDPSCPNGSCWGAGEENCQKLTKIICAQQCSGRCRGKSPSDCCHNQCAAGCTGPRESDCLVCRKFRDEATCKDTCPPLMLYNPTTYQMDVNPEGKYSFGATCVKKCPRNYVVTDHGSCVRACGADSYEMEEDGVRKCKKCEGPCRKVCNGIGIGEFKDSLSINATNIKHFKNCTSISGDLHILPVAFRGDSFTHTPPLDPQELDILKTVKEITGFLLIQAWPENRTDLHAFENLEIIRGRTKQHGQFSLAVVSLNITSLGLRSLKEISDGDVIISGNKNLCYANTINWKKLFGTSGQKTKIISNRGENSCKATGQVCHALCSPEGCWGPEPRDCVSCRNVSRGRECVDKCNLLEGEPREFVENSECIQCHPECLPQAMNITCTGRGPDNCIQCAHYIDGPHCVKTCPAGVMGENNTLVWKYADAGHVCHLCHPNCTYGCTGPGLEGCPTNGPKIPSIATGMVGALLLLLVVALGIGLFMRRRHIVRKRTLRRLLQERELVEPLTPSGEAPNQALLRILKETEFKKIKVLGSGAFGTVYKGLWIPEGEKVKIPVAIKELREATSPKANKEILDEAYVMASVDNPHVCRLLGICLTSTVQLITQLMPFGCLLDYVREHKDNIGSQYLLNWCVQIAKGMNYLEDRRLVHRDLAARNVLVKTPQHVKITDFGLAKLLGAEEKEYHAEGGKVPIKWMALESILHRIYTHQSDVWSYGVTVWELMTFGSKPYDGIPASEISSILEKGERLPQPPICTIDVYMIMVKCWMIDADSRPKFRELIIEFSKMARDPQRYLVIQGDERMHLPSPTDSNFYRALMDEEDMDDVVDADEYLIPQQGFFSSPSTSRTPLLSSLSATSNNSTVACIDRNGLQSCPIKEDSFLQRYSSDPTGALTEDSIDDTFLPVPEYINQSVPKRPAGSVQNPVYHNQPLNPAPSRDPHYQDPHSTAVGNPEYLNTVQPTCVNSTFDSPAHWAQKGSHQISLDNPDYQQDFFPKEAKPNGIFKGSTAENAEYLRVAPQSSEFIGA

IC50 [1] | IC50 [2] | SMILES
58 nM | 11900 nM | Cc1cc(CCC(=O)N2CCN(C)CC2)[nH]c1/C=C1\C(=O)Nc2ncnc(Nc3ccc(F)c(Cl)c3)c21 [Formula 25]
210 nM | 160 nM | CCN(CC)CCNC(=O)c1c(C)[nH]c(/C=C2\C(=O)Nc3ncnc(Nc4ccc(F)c(Cl)c4)c32)c1C [Formula 28]
7140 nM | 18700 nM | Cc1cc(C(=O)NCCN2CCOCC2)[nH]c1/C=C1\C(=O)N(C)c2ncnc(Nc3ccc(F)c(Cl)c3)c21 [Formula 32]
400 nM | 590 nM | Cc1cc(/C=C2\C(=O)Nc3ncnc(Nc4ccc(F)c(Cl)c4)c32)[nH]c1C(=O)N1CCN(C)CC1 [Formula 35]
5 nM | 1800 nM | Cc1cc(CCC(=O)O)[nH]c1/C=C1\C(=O)Nc2ncnc(Nc3ccc(F)c(Cl)c3)c21 [Formula 49]
38 nM | 860 nM | Cc1[nH]c(/C=C2\C(=O)Nc3ncnc(Nc4ccc(F)c(Cl)c4)c32)c(C)c1CC(=O)O [Formula 51]
